This assay concerns the target T1, FLT3 ITD, F691L (Homo sapiens, UniProt P36888, F691L, form not given).
T1 construct: fused on or other part: DNA tag for qPCR detection (T7 phage fusion or DNA-tagged protein from HEK-293 cells)
T1 sequence (P36888 1-993 F691L): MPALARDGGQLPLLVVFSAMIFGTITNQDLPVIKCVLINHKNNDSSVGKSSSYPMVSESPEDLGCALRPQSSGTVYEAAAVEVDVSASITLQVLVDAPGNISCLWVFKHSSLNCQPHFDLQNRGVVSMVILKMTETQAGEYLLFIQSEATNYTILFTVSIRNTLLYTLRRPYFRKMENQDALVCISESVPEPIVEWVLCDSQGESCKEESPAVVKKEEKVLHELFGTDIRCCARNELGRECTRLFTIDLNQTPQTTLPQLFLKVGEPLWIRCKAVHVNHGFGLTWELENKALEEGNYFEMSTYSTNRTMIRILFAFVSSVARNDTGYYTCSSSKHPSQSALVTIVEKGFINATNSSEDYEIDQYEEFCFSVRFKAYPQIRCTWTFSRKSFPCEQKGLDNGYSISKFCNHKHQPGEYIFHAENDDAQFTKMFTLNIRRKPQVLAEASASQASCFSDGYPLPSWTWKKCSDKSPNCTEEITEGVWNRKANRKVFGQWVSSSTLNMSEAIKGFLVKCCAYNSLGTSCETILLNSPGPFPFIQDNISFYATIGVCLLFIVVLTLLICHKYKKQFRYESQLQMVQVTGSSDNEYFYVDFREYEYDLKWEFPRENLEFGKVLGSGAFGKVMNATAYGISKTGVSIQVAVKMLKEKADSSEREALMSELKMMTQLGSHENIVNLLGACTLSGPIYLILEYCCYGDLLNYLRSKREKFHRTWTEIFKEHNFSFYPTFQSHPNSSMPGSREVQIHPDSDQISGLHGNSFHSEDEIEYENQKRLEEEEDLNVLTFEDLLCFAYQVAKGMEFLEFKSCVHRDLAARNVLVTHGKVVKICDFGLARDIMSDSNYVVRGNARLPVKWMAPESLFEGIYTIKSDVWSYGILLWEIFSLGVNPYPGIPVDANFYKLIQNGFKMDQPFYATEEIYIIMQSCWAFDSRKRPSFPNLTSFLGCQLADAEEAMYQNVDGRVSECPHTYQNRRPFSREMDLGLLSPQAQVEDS
Nature of the assay: DiscoverX KINOMEscan competition binding, FLT3 ITD, F691L. The source says: Kinase binding data were obtained for various exemplary compounds prepared according to Examples 1-24 using the DiscoverX KINOMVIEscan® active site-directed competition binding site-directed assay protocol described below. […] As a result, the data report thermodynamic interaction affinities (Kd values), rather than IC50 values that are dependent on ATP concentrations. The assay uses a DNA-tagged version of the protein kinase, and an immobilized ligand bound to a solid support. Compounds that directly or indirectly prevent kinase binding to the immobilized ligand reduce the amount of kinase captured on the solid support, which is detected using an ultra-sensitive qPCR method. Affinity constants reported from the assay have been reported to be independent of the immobilized ligand used that is coupled to the solid support (See supplemental information in Fabian, M. A. et. al., (2005) Nat. Biotechnol. 23, 329-336; Wodicka, L. M. et. al., (2010) Chem. Biol. 17, 1241-1249.)
Kinase-tagged T7 phage strains were prepared in an E. coli host derived from the BL21 strain. E. coli were grown to log-phase and infected with T7 phage and incubated with shaking at 32° C. until lysis. The lysates were centrifuged and filtered to remove cell debris. The remaining kinases were produced in HEK-293 cells and subsequently tagged with DNA for qPCR detection. Streptavidin-coated magnetic beads were treated with biotinylated small molecule ligands for 30 minutes at room temperature to generate affinity resins for kinase assays. The liganded beads were blocked with excess biotin and washed with blocking buffer (SeaBlock (Pierce), 1% BSA, 0.05% Tween 20, 1 mM DTT) to remove unbound ligand and to reduce non-specific binding. Binding reactions were assembled by combining kinases, liganded affinity beads, and test compounds in 1× binding buffer (20% SeaBlock, 0.17×PBS, 0.05% Tween 20, 6 mM DTT). Test compounds were prepared as 111× stocks in 100% DMSO. Kds were determined using an 11-point 3-fold compound dilution series with three DMSO control points. All compounds for Kd measurements are distributed by acoustic transfer (non-contact dispensing) in 100% DMSO. The compounds were then diluted directly into the assays such that the final concentration of DMSO was 0.9%. All reactions were performed in polypropylene 384-well plates. Each was a final volume of 0.02 mL. The assay plates were incubated at room temperature with shaking for 1 hour and the affinity beads were washed with wash buffer (1×PBS, 0.05% Tween 20). The beads were then re-suspended in elution buffer (1×PBS, 0.05% Tween 20, 0.5 μM nonbiotinylated affinity ligand) and incubated at room temperature with shaking for 30 minutes. The kinase concentration in the eluates was measured by qPCR.
Binding constants (Kds) were calculated with a standard dose-response curve using the Hill equation. The Hill Slope was set to −1. Curves were fitted using a non-linear least square fit with the Levenberg-Marquardt algorithm.

Each structure is given as a SMILES string.

In the case of `CC1(c2cn3c(-c4cccc(N[C@H]5CNC[C@@H]5F)n4)cnc3cn2)CC1` [Compound 1, N-((3S,4S)-4-fluoropyrrolidin-3-yl)-6-(6-(1-methylcyclopropyl)imidazo[1,2-a]pyrazin-3-yl)pyridin-2-amine], the Kd (usually the equilibrium constant for the complex coming apart) is 0.11 nM.

Regarding `CC1(c2cn3c(-c4cccc(N[C@@H]5CCNC5)n4)cnc3cn2)CC1` [Compound 3, (R)-6-(6-(1-methylcyclopropyl)imidazo[1,2-a]pyrazin-3-yl)-N-(pyrrolidin-3-yl)pyridin-2-amine], binding was put at a Kd of 0.071 nM.

Take `CC1(c2cn3c(-c4cccc(N[C@H]5CNCC56CC6)n4)cnc3cn2)CC1` [Compound 5, (R)-N-(6-(6-(1-methylcyclopropyl)imidazo[1,2-a]pyrazin-3-yl)pyridin-2-yl)-5-azaspiro[2.4]heptan-7-amine]: the Kd stood at 0.023 nM. Against the preceding compound, the Kd is about 3.1-fold lower.

`FC(F)(F)C1(c2cn3c(-c4cccc(N[C@@H]5CCNC5)n4)cnc3cn2)CC1` [Compound 10, (R)-N-(pyrrolidin-3-yl)-6-(6-(1-(trifluoromethyl)cyclopropyl)imidazo[1,2-a]pyrazin-3-yl)pyridin-2-amine] gave a Kd of 0.3 nM. This Kd is about 13-fold higher than that of the compound before.

Compound `FC(F)c1cn2c(-c3cccc(N[C@H]4CNC[C@@H]4F)n3)cnc2cn1` [Compound 16, 6-(6-(difluoromethyl)imidazo[1,2-a]pyrazin-3-yl)-N-((3S,4S)-4-fluoropyrrolidin-3-yl)pyridin-2-amine] had a dissociation constant (Kd) of 0.32 nM.

Regarding `FC(F)c1cn2c(-c3cccc(N[C@H]4CNCC[C@@H]4F)n3)cnc2cn1` [Compound 25, 6-(6-(difluoromethyl)imidazo[1,2-a]pyrazin-3-yl)-N-((3S,4S)-4-fluoropiperidin-3-yl)pyridin-2-amine], binding was characterised by a dissociation constant (Kd) of 0.074 nM.

Compound `CC(C)(O)c1cn2c(-c3cccc(N[C@@H]4CCCNC4)n3)cnc2cn1` [Compound 30, (R)-2-(3-(6-(piperidin-3-ylamino)pyridin-2-yl)imidazo[1,2-a]pyrazin-6-yl)propan-2-ol] came in with a Kd of 1.8 nM.

With `CC(C)(O)c1cn2c(-c3cccc(N[C@H]4CNCC[C@@H]4F)n3)cnc2cn1` [Compound 31, 2-(3-(6-(((3S,4S)-4-fluoropiperidin-3-yl)amino)pyridin-2-yl)imidazo[1,2-a]pyrazin-6-yl)propan-2-ol], binding was put at a Kd of 0.49 nM.

Compound `FC(F)(F)COc1cn2c(-c3cccc(N[C@@H]4CCNC4)n3)cnc2cn1` [Compound 38, (R)-N-(pyrrolidin-3-yl)-6-(6-(2,2,2-trifluoroethoxy)imidazo[1,2-a]pyrazin-3-yl)pyridin-2-amine] had a dissociation constant Kd of 0.75 nM. This Kd is about 1.5-fold higher than that of the compound before.

Turning to `F[C@H]1CNC[C@@H]1Nc1cccc(-c2cnc3cnc(C4CC4)cn23)n1` [Compound 50, 6-(6-cyclopropylimidazo[1,2-a]pyrazin-3-yl)-N-((3S,4S)-4-fluoropyrrolidin-3-yl)pyridin-2-amine], the Kd is 0.1 nM.

`Cn1cc(-c2cn3c(-c4cccc(N[C@H]5CNC[C@@H]5F)n4)cnc3cn2)cn1` [Compound 52, N-((3S,4S)-4-fluoropyrrolidin-3-yl)-6-(6-(1-methyl-1H-pyrazol-4-yl)imidazo[1,2-a]pyrazin-3-yl)pyridin-2-amine] came in with a Kd of 0.062 nM.
